Test results taken from patent publication US8952024B2, “Herbicidal pyrimidone derivatives” (E I du Pont de Nemours and Company, priority 2009, dated 2015).

Key:
Assay in all cases: Test D pre-/postemergence plant response
Format in all cases: in vivo
[1] = test system: guineagrass (Panicum maximum)
In short: (§1)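 Greenhouse assay: sown seeds in loam/sand received preemergence spray; simultaneously, emerged seedlings (1- to 4-leaf, 2–18 cm) got postemergence spray of the same surfactant-containing formulation. Rating at 14–21 days by visual comparison with controls, 0 = no effect to 100 = complete control.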

[2] = test system: sandbur (southern sandbur, Cenchrus echinatus)
In short: as §1

[3] = test system: mallow (common mallow, Malva sylvestris)
In short: as §1

kochia (Kochia scoparia) = test system: kochia (Kochia scoparia)
In short: as §1

[4] = test system: naked crabgrass (Digitaria nuda)
In short: as §1

[5] = test system: signalgrass (broadleaf signalgrass, Brachiaria platyphylla)
In short: as §1

[6] = test system: large crabgrass (Digitaria sanguinalis)
In short: as §1

[7] = test system: green foxtail (Setaria viridis)
In short: as §1

[8] = test system: morningglory (pitted morningglory, Ipomoea lacunosa)
In short: as §1

[9] = test system: bluegrass (annual bluegrass, Poa annua)
In short: as §1

[10] = test system: Surinam grass (Brachiaria decumbens)
In short: as §1

[11] = test system: ragweed (common ragweed, Ambrosia elatior)
In short: as §1

[12] = test system: dallisgrass (Paspalum dilatatum)
In short: as §1

[13] = test system: Russian thistle (Salsola kali); conditions: scale 0 to 100
In short: as §1

[14] = test system: quackgrass (Elytrigia repens)
In short: as §1

[15] = test system: barnyardgrass (Echinochloa crus-galli)
In short: as §1

[16] = Postemergence, 16 g ai/ha, scale 0 to 100
[17] = Postemergence, 31 g ai/ha, scale 0 to 100
[18] = Postemergence, 125 g ai/ha, scale 0 to 100 (0 no effect, 100 complete control)
[19] = Postemergence, 62 g ai/ha, scale 0 to 100 (0 no effect, 100 complete control)
[20] = Preemergence, 16 g ai/ha, scale 0 to 100, 0 no effect, 100 complete control
[21] = Preemergence, 31 g ai/ha, scale 0 to 100 (0 no effect, 100 complete control)
[22] = Preemergence, 62 g ai/ha, scale 0 to 100
[23] = Preemergence, 125 g ai/ha, scale 0 to 100
[24] = Postemergence, 31 g ai/ha, scale 0 to 100 (0 no effect, 100 complete control)

Cc1ccc(F)c(-n2c(-c3ccccc3)ncc(C(=O)C3=C(O)CCCC3=O)c2=O)c1 [Compound 51]
0: Plant response rating, Guineagrass [1, 20] | Plant response rating, Guineagrass [1, 21] | Plant response rating, Guineagrass [1, 22] | Plant response rating, Sandbur [2, 20] | Plant response rating, Sandbur [2, 21] | Plant response rating, Mallow [3, 16] | Plant response rating, Mallow [3, 17] | Plant response rating, Mallow [3, 19] | Plant response rating, Mallow [3, 20] | Plant response rating, Mallow [3, 21] | Plant response rating, Mallow [3, 22] | Plant response rating, Kochia (kochia (Kochia scoparia); [20]) | Plant response rating, Kochia (kochia (Kochia scoparia); [22]) | Plant response rating, Crabgrass, Naked [4, 20] | Plant response rating, Crabgrass, Naked [4, 21] | Plant response rating, Crabgrass, Naked [4, 22] | Plant response rating, Crabgrass, Naked [4, 23] | Plant response rating, Signalgrass [5, 20] | Plant response rating, Signalgrass [5, 21] | Plant response rating, Crabgrass, Large [6, 20] | Plant response rating, Foxtail, Green [7, 20] | Plant response rating, Foxtail, Green [7, 21] | Plant response rating, Foxtail, Green [7, 22] | Plant response rating, Foxtail, Green [7, 23] | Plant response rating, Morningglory [8, 16] | Plant response rating, Morningglory [8, 20] | Plant response rating, Morningglory [8, 21] | Plant response rating, Bluegrass [9, 16] | Plant response rating, Bluegrass [9, 24] | Plant response rating, Bluegrass [9, 18] | Plant response rating, Bluegrass [9, 19] | Plant response rating, Bluegrass [9, 20] | Plant response rating, Bluegrass [9, 21] | Plant response rating, Bluegrass [9, 22] | Plant response rating, Bluegrass [9, 23] | Plant response rating, Dallisgrass [12, 20] | Plant response rating, Russian Thistle ([13]; Postemergence, 16 g ai/ha) | Plant response rating, Quackgrass [14, 16] | Plant response rating, Quackgrass [14, 17] | Plant response rating, Quackgrass [14, 18] | Plant response rating, Quackgrass [14, 19] | Plant response rating, Quackgrass [14, 20] | Plant response rating, Quackgrass [14, 21] | Plant response rating, Quackgrass [14, 23] | Plant response rating, Barnyardgrass [15, 20] | Plant response rating, Barnyardgrass [15, 21] | Plant response rating, Barnyardgrass [15, 22]
95: Plant response rating, Ragweed [11, 23]
40: Plant response rating, Foxtail, Green [7, 19]
75: Plant response rating, Guineagrass [1, 23] | Plant response rating, Sandbur [2, 23] | Plant response rating, Ragweed [11, 17] | Plant response rating, Russian Thistle ([13]; Preemergence, 125 g ai/ha)
70: Plant response rating, Surinam Grass [10, 19] | Plant response rating, Dallisgrass [12, 18] | Plant response rating, Barnyardgrass [15, 24] | Plant response rating, Barnyardgrass [15, 18] | Plant response rating, Barnyardgrass [15, 19]
20: Plant response rating, Guineagrass [1, 16] | Plant response rating, Mallow [3, 18] | Plant response rating, Kochia (kochia (Kochia scoparia); [18]) | Plant response rating, Foxtail, Green [7, 17] | Plant response rating, Morningglory [8, 17] | Plant response rating, Morningglory [8, 19] | Plant response rating, Dallisgrass [12, 16] | Plant response rating, Dallisgrass [12, 17]
35: Plant response rating, Crabgrass, Naked [4, 16] | Plant response rating, Signalgrass [5, 17] | Plant response rating, Crabgrass, Large [6, 17] | Plant response rating, Crabgrass, Large [6, 18] | Plant response rating, Crabgrass, Large [6, 19] | Plant response rating, Ragweed [11, 20]
100: Plant response rating, Morningglory [8, 23]
85: Plant response rating, Ragweed [11, 18]
90: Plant response rating, Surinam Grass [10, 20] | Plant response rating, Dallisgrass [12, 23]
80: Plant response rating, Surinam Grass [10, 18] | Plant response rating, Ragweed [11, 19]
60: Plant response rating, Sandbur [2, 18] | Plant response rating, Surinam Grass [10, 17] | Plant response rating, Ragweed [11, 16]
10: Plant response rating, Signalgrass [5, 23] | Plant response rating, Foxtail, Green [7, 16] | Plant response rating, Dallisgrass [12, 21] | Plant response rating, Dallisgrass [12, 22] | Plant response rating, Barnyardgrass [15, 23]
50: Plant response rating, Guineagrass [1, 18] | Plant response rating, Kochia (kochia (Kochia scoparia); [23]) | Plant response rating, Crabgrass, Naked [4, 17] | Plant response rating, Signalgrass [5, 18] | Plant response rating, Signalgrass [5, 19] | Plant response rating, Surinam Grass [10, 16] | Plant response rating, Ragweed [11, 21]
5: Plant response rating, Sandbur [2, 16] | Plant response rating, Kochia (kochia (Kochia scoparia); [16]) | Plant response rating, Kochia (kochia (Kochia scoparia); [17]) | Plant response rating, Kochia (kochia (Kochia scoparia); [19]) | Plant response rating, Signalgrass [5, 16] | Plant response rating, Crabgrass, Large [6, 21] | Plant response rating, Crabgrass, Large [6, 22] | Plant response rating, Crabgrass, Large [6, 23]
25: Plant response rating, Sandbur [2, 17] | Plant response rating, Sandbur [2, 19] | Plant response rating, Crabgrass, Large [6, 16]
30: Plant response rating, Guineagrass [1, 17] | Plant response rating, Guineagrass [1, 19] | Plant response rating, Morningglory [8, 22] | Plant response rating, Dallisgrass [12, 19]
98: Plant response rating, Surinam Grass [10, 21]
65: Plant response rating, Mallow [3, 23] | Plant response rating, Crabgrass, Naked [4, 18] | Plant response rating, Foxtail, Green [7, 18] | Plant response rating, Morningglory [8, 18] | Plant response rating, Barnyardgrass [15, 16]
